These results are taken from US9149475B2, “Protein kinase C inhibitors and uses thereof” (Rigel Pharmaceuticals, Inc., priority 2009, dated 2015).

pIC50: −log10 of the molar value.

The first test relates to Human primary T cells. Nature of the test: IL-2 ELISA, human primary T cell, anti-CD3+CD28+ (whole cell assay). In kind it is cell-based. The conditions noted are these: Homo sapiens, T-cell, 24 h, human primary T cells stimulated with anti-CD3 + anti-CD28, 24 hours. The procedure, abridged: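 PBMC-derived T cells, pre-expanded on αCD3/αCD28 with IL-2 and then washed free of IL-2, were preincubated with compound for 1 hr at 37° C (100,000 cells/well). They were then stimulated on 1 μg/ml αCD3 plus 5 μg/ml αCD28 for 24 h, and supernatant IL-2 was measured by ELISA. The counter-assay used 0.5 ng/ml PMA plus 0.1 μM ionomycin instead.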
Background: In an ELISA, binding on a coated surface is turned into a signal by an enzyme label.
The term pIC50 denotes the IC50 on a negative log10 scale, so that one unit is a factor of ten. Consider `CN1C(C)(C)CC(Nc2nc(Nc3ccc(OC4CCN(Cc5ccccc5)CC4)c(OC(F)F)c3)ncc2F)CC1(C)C` [III-52, N2-(4-(1-benzylpiperidin-4-yloxy)-3-(difluoromethoxy)phenyl)-5-fluoro-N4-(1,2,2,6,6-pentamethylpiperidin-4-yl)pyrimidine-2,4-diamine], for which the pIC50 was 6.30 to 6.60.

As for `Cc1ccc(C)n1-c1cc(Nc2ncc(F)c(NC3CC(C)(C)NC(C)(C)C3)n2)cnc1OC(C)C` [Compound I-116, 5-fluoro-N2-(6-isopropoxy-5-(2,5-dimethyl-1H-pyrrol-1-yl)pyridin-3-yl)-N4-(2,2,6,6-tetramethylpiperidin-4-yl)pyrimidine-2,4-diamine], the pIC50 was 6.00 to 6.30.

With `CC1(C)CC(Nc2nc(Nc3ccc(OCCN4CCNC4=O)c(OC(F)F)c3)ncc2F)CC(C)(C)N1` [Compound I-50, 1-(2-(4-(4-(2,2,6,6-tetramethylpiperidin-4-ylamino)-5-fluoropyrimidin-2-ylamino)-2-(difluoromethoxy)phenoxy)ethyl)imidazolidin-2-one], the pIC50 is less than 6.00.

In the case of `Cc1ccc(C)n1-c1cc(Nc2ncc(F)c(NC3CC(C)(C)NC(C)(C)C3)n2)ccc1OC(C)C` [Compound I-16, N2-(4-isopropyloxy-3-(2,5-dimethyl-1H-pyrrol-1-yl)phenyl)-5-fluoro-N4-(2,2,6,6-tetramethylpiperidin-4-yl)pyrimidine-2,4-diamine], the pIC50 was less than 6.00.

Turning to `CN1C(C)(C)CC(Nc2nc(Nc3cccc(-c4nnnn4CCF)c3)ncc2F)CC1(C)C` [III-74, 5-fluoro-N2-(3-(1-(2-fluoroethyl)-1H-tetrazol-5-yl)phenyl)-N4-(1,2,2,6,6-pentamethylpiperidin-4-yl)pyrimidine-2,4-diamine], the negative logarithm of the IC50 (pIC50) is 6.30 to 6.60.

`CC1(C)CC(Nc2nc(Nc3cc(C4CC4)cc(-n4cnnn4)c3)ncc2F)CC(C)(C)N1` [III-116, N^2-(3-cyclopropyl-5-(1H-tetrazol-1-yl)phenyl)-5-fluoro-N^4(2,2,6,6-tetramethylpiperidin-4-yl)pyrimidine-2,4-diamine]: the negative-log IC50 (pIC50) was greater than 6.60.

For `CN1C(C)(C)CC(Nc2nc(Nc3ccc(OC4CCNCC4)c(OC(F)F)c3)ncc2F)CC1(C)C` [III-27, N2-(3-(difluoromethoxy)-4-(piperidin-4-yloxy)phenyl)-5-fluoro-N4-(1,2,2,6,6-pentamethylpiperidin-4-yl)pyrimidine-2,4-diamine], the negative-log IC50 (pIC50) is 6.30 to 6.60.

On to `CC(C)N1CCC(Oc2ccc(Nc3ncc(F)c(NC4CC(C)(C)NC(C)(C)C4)n3)cc2F)CC1` [III-19, 5-fluoro-N2-(3-fluoro-4-(1-isopropylpiperidin-4-yloxy)phenyl)-N4-(2,2,6,6-tetramethylpiperidin-4-yl)pyrimidine-2,4-diamine], for which the pIC50 was 6.30 to 6.60.

For the compound `CCNC(=O)N1CCC(Oc2ccc(Nc3ncc(F)c(NC4CC(C)(C)NC(C)(C)C4)n3)cc2OC(F)F)CC1` [III-86, 4-(2-(difluoromethoxy)-4-(5-fluoro-4-(2,2,6,6-tetramethylpiperidin-4-ylamino)pyrimidin-2-ylamino)phenoxy)-N-ethylpiperidine-1-carboxamide], the negative-log IC50 (pIC50) was less than 6.00.

For the compound `CC1(C)CC(Nc2nc(Nc3ccc(OC4CCS(=O)(=O)CC4)c(OC(F)F)c3)ncc2F)CC(C)(C)N1` [III-32, N2-[3-Difluoromethoxy-4-(1,1-dioxo-hexahydro-1λ6-thiopyran-4-yloxy)-phenyl]-5-fluoro-N4-(2,2,6,6-tetramethyl-piperidin-4-yl)-pyrimidine-2,4-diamine], the negative-log IC50 (pIC50) is less than 6.00.

`CC1(C)CC(Nc2nc(Nc3ccc(OCCN4CCOCC4)c(C(F)(F)F)c3)ncc2F)CC(C)(C)N1` [Compound I-65, N2-(4-(2-morpholinoethoxy)-3-(trifluoromethyl)phenyl)-5-fluoro-N4-(2,2,6,6-tetramethylpiperidin-4-yl)pyrimidine-2,4-diamine]: the pIC50 was 6.00 to 6.30.

Regarding `CC1(C)CC(Nc2nc(Nc3ccc(OC4CCN(CCO)CC4)c(OC(F)F)c3)ncc2F)CC(C)(C)N1` [III-38, 2-(4-(2-(Difluoromethoxy)-4-(5-fluoro-4-(2,2,6,6-tetramethylpiperidin-4-ylamino)pyrimidin-2-ylamino)phenoxy)piperidin-1-yl)ethanol], the negative logarithm of the IC50 (pIC50) was 6.00 to 6.30.

As for `CC1(C)CC(Nc2nc(Nc3cc(F)c(OC4CCCN(S(C)(=O)=O)CC4)c(F)c3)ncc2F)CC(C)(C)N1` (stereo not shown) [III-80, N2-(3,5-difluoro-4-(1-(methylsulfonyl)azepan-4-yloxy)phenyl)-5-fluoro-N4-(2,2,6,6-tetramethylpiperidin-4-yl)pyrimidine-2,4-diamine], the pIC50 is less than 6.00.

As for `CN1C(C)(C)CC(Nc2nc(Nc3cc(F)c(OC4CCCN(S(C)(=O)=O)CC4)c(F)c3)ncc2F)CC1(C)C` (stereo not shown) [III-79, N2-(3,5-difluoro-4-(1-(methylsulfonyl)azepan-4-yloxy)phenyl)-5-fluoro-N4-(1,2,2,6,6-pentamethylpiperidin-4-yl)pyrimidine-2,4-diamine], the pIC50 was 6.00 to 6.30.

In the case of `Cc1ccc(C)n1-c1cc(Nc2ncc(F)c(NC3CC(C)(C)N(C)C(C)(C)C3)n2)cnc1OC(C)C` [Compound I-115, 5-fluoro-N2-(6-isopropoxy-5-(2,5-dimethyl-1H-pyrrol-1-yl)pyridin-3-yl)-N4-(1,2,2,6,6-pentamethylpiperidin-4-yl)pyrimidine-2,4-diamine], the pIC50 is 6.00 to 6.30.

Turning to `[2H]C([2H])([2H])N1C(C)(C)CC(Nc2nc(Nc3ccc(OC4CCN(C(C)C)CC4)c(Cl)c3)ncc2F)CC1(C)C` [III-111, N2-(3-(chloro)-4-(1-isopropylpiperidin-4-yloxy)phenyl)-5-fluoro-N4-(1-trideuteromethyl-2,2,6,6-tetramethylpiperidin-4-yl)pyrimidine-2,4-diamine], the pIC50 is greater than 6.60.

Regarding `CN1C(C)(C)CC(Nc2nc(Nc3ccc(OCCN4CCNC4=O)c(OC(F)F)c3)ncc2F)CC1(C)C` [Compound I-51, 1-(2-(4-(4-(1,2,2,6,6-pentamethylpiperidin-4-ylamino)-5-fluoropyrimidin-2-ylamino)-2-(difluoromethoxy)phenoxy)ethyl)imidazolidin-2-one], the pIC50 was 6.00 to 6.30.

With `CN1C(C)(C)CC(Nc2nc(Nc3cc(-c4nnnn4C)cc(C(F)(F)F)c3)ncc2F)CC1(C)C` [III-141, 5-fluoro-N2-(3-(1-methyl-1H-tetrazol-5-yl)-5-(trifluoromethyl)phenyl)-N4-(1,2,2,6,6-pentamethylpiperidin-4-yl)pyrimidine-2,4-diamine], the pIC50 was greater than 6.60.

Regarding `CC(C)N1CC[C@H](Oc2ccc(Nc3ncc(F)c(NC4CC(C)(C)N(C)C(C)(C)C4)n3)cc2OC(F)F)C1` [Compound I-149, N2-(4-((S)-1-isopropylpyrrolidin-3-yloxy)-3-(difluoromethoxy)phenyl)-5-fluoro-N4-(1,2,2,6,6-pentamethylpiperidin-4-yl)pyrimidine-2,4-diamine], the negative-log IC50 (pIC50) was greater than 6.60.

For the compound `CN1C(C)(C)CC(Nc2nc(Nc3ccc(OCCN4CCOCC4)c(OC(F)F)c3)ncc2F)CC1(C)C` [Compound I-121, N2-(4-(2-morpholinoethoxy)-3-(difluoromethoxy)phenyl)-5-fluoro-N4-(1,2,2,6,6-pentamethylpiperidin-4-yl)pyrimidine-2,4-diamine], the negative logarithm of the IC50 (pIC50) is 6.00 to 6.30.

In the case of `CC1(C)CC(Nc2nc(Nc3cccc(-c4nnnn4CCF)c3)ncc2F)CC(C)(C)N1` [III-75, 5-fluoro-N2-(3-(1-(2-fluoroethyl)-1H-tetrazol-5-yl)phenyl)-N4-(2,2,6,6-tetramethylpiperidin-4-yl)pyrimidine-2,4-diamine], the pIC50 is 6.00 to 6.30.

Take `CC(=O)N1CCCC(Oc2c(F)cc(Nc3ncc(F)c(NC4CC(C)(C)N(C)C(C)(C)C4)n3)cc2F)CC1` (stereo not shown) [III-81, 1-(4-(2,6-difluoro-4-(5-fluoro-4-(1,2,2,6,6-pentamethylpiperidin-4-ylamino)pyrimidin-2-ylamino)phenoxy)azepan-1-yl)ethanone]: the pIC50 was 6.00 to 6.30.

Still in this test, the particulars now being: human primary T cells stimulated with anti-CD3 + anti-CD28, 24 hours.
With `CC1(C)CC(Nc2nc(Nc3cccc(-n4nnnc4SCC(F)(F)F)c3)ncc2F)CC(C)(C)N1` [Compound I-70, 5-fluoro-N4-(2,2,6,6-tetramethylpiperidin-4-yl)-N2-{3-[5-(2,2,2-trifluoroethyl)thio]-1H-tetrazol-1-yl}phenyl-2,4-pyrimidinediamine], the negative logarithm of the IC50 (pIC50) is greater than 6.60.

As to `CC1(C)CC(Nc2nc(Nc3cccc(-c4nnn[nH]4)c3)ncc2C#N)CC(C)(C)N1` [Compound I-85, 5-Cyano-N4-(2,2,6,6-tetramethylpiperidin-4-yl)-N2-[3-(tetrazol-5-yl)]phenyl-2,4-pyrimidinediamine], the pIC50 is less than 6.00.

Turning to `Cc1ccc(C)n1-c1cc(Nc2ncc(F)c(NC3CC(C)(C)N(C)C(C)(C)C3)n2)ccc1C#N` [Compound I-102, N2-[4-Cyano-3-(2,5-dimethyl-pyrrol-1-yl)]phenyl-5-fluoro-N4-(1,2,2,6,6-pentamethylpiperidin-4-yl)-2,4-pyrimidinediamine], the pIC50 is 6.30 to 6.60.

For `CCOc1ccc(Nc2ncc(C(N)=O)c(NC3CC(C)(C)NC(C)(C)C3)n2)cc1-n1nnnc1CC` [Compound I-68, 5-aminocarbonyl-N2-[4-ethoxy-3-(5-ethyl-1H-tetrazol-1-yl)]phenyl-N4-(2,2,6,6-tetramethylpiperidin-4-yl)-2,4-pyrimidinediamine], the negative-log IC50 (pIC50) was less than 6.00.

On to `Cc1ccc(C)n1-c1cc(Nc2ncc(F)c(NC3CC(C)(C)N(C)C(C)(C)C3)n2)ccc1OC(=O)NC(C)C` [Compound I-103, N2-[3-(2,5-Dimethyl-pyrrol-1-yl)-4-(isopropylaminocarboxyloxy)]phenyl-5-fluoro-N4-(1,2,2,6,6-pentamethylpiperidin-4-yl)-2,4-pyrimidinediamine], for which the negative logarithm of the IC50 (pIC50) is 6.00 to 6.30.

For the compound `CC1(C)CC(Nc2nc(Nc3cccc(-n4nnnc4SCC(F)(F)F)c3)ncc2C#N)CC(C)(C)N1` [Compound I-79, 5-cyano-N4-(2,2,6,6-tetramethylpiperidin-4-yl)-N2-{3-[5-(2,2,2-trifluoroethyl)thio]-1H-tetrazol-1-yl}phenyl-2,4-pyrimidinediamine], the pIC50 is greater than 6.60.
